Reference: ChEMBL document CHEMBL4321812, “Structure-based rational design of staurosporine-based fluorescent probe with broad-ranging kinase affinity for kinase panel application” (Bioorg Med Chem Lett, 2019)

Legend:
[1] = molecular target: Fibroblast growth factor receptor 1 (Homo sapiens, UniProt P11362); assay: Binding affinity to recombinant N-terminal His-FLAG-GST-tagged FGFR1 (unknown origin) (396 to 820 residues) expressed in baculovirus infected Sf9 insect cells incubated for 1 hr by TR-FRET assay
[2] = molecular target: RAC-gamma serine/threonine-protein kinase (Homo sapiens, UniProt Q9Y243); assay: Binding affinity to recombinant full-length N-terminal His-FLAG-GST-tagged AKT3 (unknown origin) (108 to 479 residues) expressed in baculovirus infected Sf9 insect cells incubated for 1 hr by TR-FRET assay
Chain of RAC-gamma serine/threonine-protein kinase (Q9Y243 whole entry, the tested form may be a part): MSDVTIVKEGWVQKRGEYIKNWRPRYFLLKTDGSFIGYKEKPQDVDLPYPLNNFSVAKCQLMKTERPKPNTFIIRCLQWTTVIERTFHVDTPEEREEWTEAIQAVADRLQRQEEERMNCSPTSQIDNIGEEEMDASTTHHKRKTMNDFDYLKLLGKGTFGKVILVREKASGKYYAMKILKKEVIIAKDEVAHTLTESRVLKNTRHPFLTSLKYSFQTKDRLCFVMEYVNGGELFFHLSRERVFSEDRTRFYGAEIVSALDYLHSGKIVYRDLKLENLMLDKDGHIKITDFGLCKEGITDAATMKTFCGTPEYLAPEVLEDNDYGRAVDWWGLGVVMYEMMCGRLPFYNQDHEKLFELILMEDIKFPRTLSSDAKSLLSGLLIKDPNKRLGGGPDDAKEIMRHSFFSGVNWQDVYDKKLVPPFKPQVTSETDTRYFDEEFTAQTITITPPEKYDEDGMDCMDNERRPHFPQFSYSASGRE

[3] = molecular target: Mitogen-activated protein kinase 15 (Homo sapiens, UniProt Q8TD08); assay: Binding affinity to recombinant full-length N-terminal His-FLAG-GST-tagged MAPK15 (unknown origin) expressed in baculovirus infected Sf9 insect cells incubated for 1 hr by TR-FRET assay
Chain of Mitogen-activated protein kinase 15 (Q8TD08 whole entry): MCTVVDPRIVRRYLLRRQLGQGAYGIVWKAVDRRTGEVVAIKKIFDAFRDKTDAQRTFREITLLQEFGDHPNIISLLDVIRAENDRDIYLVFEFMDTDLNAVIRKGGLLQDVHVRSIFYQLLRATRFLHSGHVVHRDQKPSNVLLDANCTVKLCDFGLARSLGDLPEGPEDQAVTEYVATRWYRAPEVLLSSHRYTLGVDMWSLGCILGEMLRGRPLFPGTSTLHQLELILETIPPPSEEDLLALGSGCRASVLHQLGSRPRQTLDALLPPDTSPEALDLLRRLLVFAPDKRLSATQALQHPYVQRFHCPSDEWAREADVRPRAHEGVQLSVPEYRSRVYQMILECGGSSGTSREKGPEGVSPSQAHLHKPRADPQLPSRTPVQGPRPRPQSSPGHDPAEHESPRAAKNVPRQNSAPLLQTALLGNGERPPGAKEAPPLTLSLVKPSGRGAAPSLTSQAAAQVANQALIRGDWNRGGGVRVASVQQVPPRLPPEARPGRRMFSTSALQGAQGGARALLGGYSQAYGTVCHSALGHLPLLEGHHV

[4] = molecular target: Ribosomal protein S6 kinase alpha-5 (Homo sapiens, UniProt O75582); assay: Binding affinity to recombinant full-length N-terminal His-FLAG-GST-tagged RPS6KA5 (unknown origin) expressed in baculovirus infected Sf9 insect cells incubated for 1 hr by TR-FRET assay
[5] = molecular target: Serine/threonine-protein kinase 16 (Homo sapiens, UniProt O75716); assay: Binding affinity to recombinant full-length N-terminal His-FLAG-GST-tagged STK16 (unknown origin) expressed in baculovirus infected Sf9 insect cells incubated for 1 hr by TR-FRET assay
Chain of Serine/threonine-protein kinase 16 (O75716 whole entry): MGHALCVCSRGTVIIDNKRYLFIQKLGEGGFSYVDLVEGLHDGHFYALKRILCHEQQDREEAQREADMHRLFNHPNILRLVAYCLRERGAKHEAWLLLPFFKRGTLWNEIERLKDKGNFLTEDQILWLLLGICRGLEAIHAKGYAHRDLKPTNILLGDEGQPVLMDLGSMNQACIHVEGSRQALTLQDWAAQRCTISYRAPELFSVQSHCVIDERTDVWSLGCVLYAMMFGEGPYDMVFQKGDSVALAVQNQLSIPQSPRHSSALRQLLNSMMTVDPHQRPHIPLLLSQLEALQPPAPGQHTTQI

[6] = molecular target: Serine/threonine-protein kinase TAO3 (Homo sapiens, UniProt Q9H2K8); assay: Binding affinity to recombinant human full length N-terminal GST-tagged TAOK3 expressed in baculovirus expression system using PKC-epsilon peptide as substrate incubated for 1 hr by TR-FRET assay
[7] = molecular target: Calcium/calmodulin-dependent protein kinase kinase 1 (Homo sapiens, UniProt Q8N5S9); assay: Binding affinity to recombinant full-length N-terminal His-FLAG-GST-tagged CAMKK1 (unknown origin) expressed in baculovirus infected Sf9 insect cells incubated for 1 hr in presence of calmodulin by TR-FRET assay
Chain of Calcium/calmodulin-dependent protein kinase kinase 1 (Q8N5S9 whole entry, the tested form may be a part): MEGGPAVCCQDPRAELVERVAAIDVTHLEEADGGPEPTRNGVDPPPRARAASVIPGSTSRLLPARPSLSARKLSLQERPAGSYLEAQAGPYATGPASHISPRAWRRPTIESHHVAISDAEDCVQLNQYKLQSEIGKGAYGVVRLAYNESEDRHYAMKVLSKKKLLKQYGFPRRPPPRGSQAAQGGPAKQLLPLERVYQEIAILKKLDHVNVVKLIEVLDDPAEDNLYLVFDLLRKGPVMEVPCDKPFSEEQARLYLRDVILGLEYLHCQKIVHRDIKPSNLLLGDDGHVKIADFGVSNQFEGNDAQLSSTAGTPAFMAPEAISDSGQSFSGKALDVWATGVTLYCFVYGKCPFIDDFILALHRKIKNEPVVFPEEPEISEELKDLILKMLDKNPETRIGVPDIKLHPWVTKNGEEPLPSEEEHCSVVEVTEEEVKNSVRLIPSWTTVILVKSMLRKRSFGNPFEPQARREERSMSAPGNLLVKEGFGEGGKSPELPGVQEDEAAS

[8] = molecular target: 5'-AMP-activated protein kinase catalytic subunit alpha-2 (Homo sapiens, UniProt P54646); assay: Binding affinity to recombinant full-length N-terminal His-FLAG-GST-tagged PRKAA2 (unknown origin) (10 to 552 residues) expressed in baculovirus infected Sf9 insect cells incubated for 1 hr by TR-FRET assay
[9] = molecular target: Non-receptor tyrosine-protein kinase TNK1 (Homo sapiens, UniProt Q13470); assay: Binding affinity to recombinant human N-terminal GST-tagged TNK1 (106 to 390 residues) expressed in baculovirus expression system using CSKtide as substrate incubated for 1 hr by TR-FRET assay
Myosin-IIIb = Myosin-IIIb (Homo sapiens, UniProt Q8WXR4); assay: Binding affinity to recombinant full-length N-terminal His-FLAG-GST-tagged MYO3B (unknown origin) (1 to 362 residues) expressed in baculovirus infected Sf9 insect cells incubated for 1 hr by TR-FRET assay
[10] = molecular target: Calcium/calmodulin-dependent protein kinase type II subunit alpha (Homo sapiens, UniProt Q9UQM7); assay: Binding affinity to recombinant human full-length N-terminal GST-tagged CAMK2A expressed in baculovirus expression system using GS peptide as substrate incubated for 1 hr in presence of calmodulin by TR-FRET assay
[11] = molecular target: cAMP-dependent protein kinase catalytic subunit beta (Homo sapiens, UniProt P22694); assay: Binding affinity to recombinant full-length N-terminal His-FLAG-GST-tagged PRKACB (unknown origin) expressed in baculovirus infected Sf9 insect cells incubated for 1 hr by TR-FRET assay
[12] = molecular target: Non-receptor tyrosine-protein kinase TYK2 (Homo sapiens, UniProt P29597); assay: Binding affinity to recombinant N-terminal His-FLAG-GST-tagged TYK2 (unknown origin) (871 to 1187 residues) expressed in baculovirus infected Sf9 insect cells incubated for 1 hr by TR-FRET assay
Chain of Non-receptor tyrosine-protein kinase TYK2 (P29597 whole entry, the tested form may be a part): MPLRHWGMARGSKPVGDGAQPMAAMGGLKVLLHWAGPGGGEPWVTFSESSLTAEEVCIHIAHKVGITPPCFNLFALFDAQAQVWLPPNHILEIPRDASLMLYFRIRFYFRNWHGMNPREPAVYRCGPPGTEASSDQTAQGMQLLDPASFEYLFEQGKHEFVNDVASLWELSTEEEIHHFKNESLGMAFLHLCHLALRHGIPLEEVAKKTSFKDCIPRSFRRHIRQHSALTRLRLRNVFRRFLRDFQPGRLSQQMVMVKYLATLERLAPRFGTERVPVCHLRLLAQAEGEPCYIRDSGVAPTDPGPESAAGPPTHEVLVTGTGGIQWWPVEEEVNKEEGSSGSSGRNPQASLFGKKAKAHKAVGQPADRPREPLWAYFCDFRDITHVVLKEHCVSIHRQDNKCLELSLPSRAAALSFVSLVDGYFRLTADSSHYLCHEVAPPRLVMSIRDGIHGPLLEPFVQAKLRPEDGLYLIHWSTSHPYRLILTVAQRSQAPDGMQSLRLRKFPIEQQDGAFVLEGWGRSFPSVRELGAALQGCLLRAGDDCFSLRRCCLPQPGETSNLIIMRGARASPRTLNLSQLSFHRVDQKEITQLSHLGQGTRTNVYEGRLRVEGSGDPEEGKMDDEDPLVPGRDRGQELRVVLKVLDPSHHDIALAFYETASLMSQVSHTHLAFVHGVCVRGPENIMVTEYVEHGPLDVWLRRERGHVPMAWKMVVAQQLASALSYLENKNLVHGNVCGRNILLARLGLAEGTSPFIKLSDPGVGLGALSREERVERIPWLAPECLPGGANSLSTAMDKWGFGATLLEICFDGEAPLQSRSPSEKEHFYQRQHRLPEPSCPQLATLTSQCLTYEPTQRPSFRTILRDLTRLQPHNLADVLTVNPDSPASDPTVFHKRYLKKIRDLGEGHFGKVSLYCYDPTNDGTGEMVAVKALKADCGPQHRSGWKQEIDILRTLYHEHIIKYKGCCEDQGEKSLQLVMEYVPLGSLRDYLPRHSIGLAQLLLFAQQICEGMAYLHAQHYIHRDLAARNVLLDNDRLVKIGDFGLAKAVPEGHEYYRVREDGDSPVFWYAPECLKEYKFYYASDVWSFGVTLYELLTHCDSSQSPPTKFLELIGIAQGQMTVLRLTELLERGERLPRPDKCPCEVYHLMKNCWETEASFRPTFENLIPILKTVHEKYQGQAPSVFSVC

[13] = molecular target: Ribosomal protein S6 kinase alpha-3 (Homo sapiens, UniProt P51812); assay: Binding affinity to recombinant human full length N-terminal GST-tagged RPS6KA3 expressed in baculovirus expression system using S6K peptide as substrate incubated for 1 hr by TR-FRET assay
[14] = molecular target: Hepatocyte growth factor receptor (Homo sapiens, UniProt P08581); assay: Binding affinity to recombinant full-length N-terminal His-FLAG-GST-tagged MET (unknown origin) (956 to 1390 residues) expressed in baculovirus infected Sf9 insect cells incubated for 1 hr by TR-FRET assay
[15] = molecular target: Interleukin-1 receptor-associated kinase 1 (Homo sapiens, UniProt P51617); assay: Binding affinity to recombinant N-terminal His-FLAG-GST-tagged IRAK1 (unknown origin) (194 to 712 residues) expressed in baculovirus infected Sf9 insect cells incubated for 1 hr by TR-FRET assay
Insulin receptor = Insulin receptor (Homo sapiens, UniProt P06213); assay: Binding affinity to recombinant full-length N-terminal His-FLAG-GST-tagged INSR (unknown origin) (1005 to 1310 residues) expressed in baculovirus infected Sf9 insect cells incubated for 1 hr by TR-FRET assay
Chain of Insulin receptor (P06213 28-758 limits assumed): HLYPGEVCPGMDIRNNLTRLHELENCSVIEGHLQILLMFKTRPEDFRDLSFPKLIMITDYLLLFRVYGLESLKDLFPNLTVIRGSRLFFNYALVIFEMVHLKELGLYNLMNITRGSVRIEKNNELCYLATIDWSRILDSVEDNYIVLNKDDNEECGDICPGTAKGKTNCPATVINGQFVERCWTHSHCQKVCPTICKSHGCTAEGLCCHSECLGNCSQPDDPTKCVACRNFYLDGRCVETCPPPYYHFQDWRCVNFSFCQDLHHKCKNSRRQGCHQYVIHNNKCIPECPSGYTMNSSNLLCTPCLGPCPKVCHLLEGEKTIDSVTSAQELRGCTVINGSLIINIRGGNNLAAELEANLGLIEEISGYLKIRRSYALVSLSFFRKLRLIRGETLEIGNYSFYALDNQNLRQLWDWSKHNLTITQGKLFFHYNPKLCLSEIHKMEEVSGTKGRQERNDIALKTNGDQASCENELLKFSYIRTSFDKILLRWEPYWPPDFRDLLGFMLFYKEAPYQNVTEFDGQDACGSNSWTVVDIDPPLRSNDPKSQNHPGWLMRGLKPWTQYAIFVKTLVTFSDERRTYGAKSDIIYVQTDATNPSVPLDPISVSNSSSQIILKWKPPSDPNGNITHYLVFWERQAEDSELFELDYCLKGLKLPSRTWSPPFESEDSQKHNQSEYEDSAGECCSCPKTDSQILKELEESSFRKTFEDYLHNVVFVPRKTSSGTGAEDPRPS
Chain of Insulin receptor (P06213 763-1382 limits assumed): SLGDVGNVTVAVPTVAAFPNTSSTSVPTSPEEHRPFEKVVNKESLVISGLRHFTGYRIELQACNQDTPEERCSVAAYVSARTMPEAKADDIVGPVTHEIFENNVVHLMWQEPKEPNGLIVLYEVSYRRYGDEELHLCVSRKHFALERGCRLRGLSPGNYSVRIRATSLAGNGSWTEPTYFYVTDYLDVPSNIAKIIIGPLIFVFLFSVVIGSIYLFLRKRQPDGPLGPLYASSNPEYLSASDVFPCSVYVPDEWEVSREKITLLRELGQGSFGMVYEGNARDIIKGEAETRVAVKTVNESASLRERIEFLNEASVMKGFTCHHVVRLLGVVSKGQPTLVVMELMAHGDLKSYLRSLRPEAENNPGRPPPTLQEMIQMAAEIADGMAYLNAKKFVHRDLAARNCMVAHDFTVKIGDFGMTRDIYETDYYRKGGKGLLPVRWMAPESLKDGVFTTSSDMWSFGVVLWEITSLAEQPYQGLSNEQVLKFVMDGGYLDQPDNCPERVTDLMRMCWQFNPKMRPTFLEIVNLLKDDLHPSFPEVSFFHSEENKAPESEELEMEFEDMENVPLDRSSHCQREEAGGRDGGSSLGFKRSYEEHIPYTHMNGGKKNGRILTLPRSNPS

[16] = molecular target: cGMP-dependent protein kinase 1 (Homo sapiens, UniProt Q13976); assay: Binding affinity to recombinant full-length N-terminal His-FLAG-tagged PRKG1 (unknown origin) expressed in baculovirus infected Sf9 insect cells incubated for 1 hr by TR-FRET assay
[17] = molecular target: Proto-oncogene tyrosine-protein kinase receptor Ret (Homo sapiens, UniProt P07949); assay: Binding affinity to recombinant N-terminal His-FLAG-GST-tagged RET (unknown origin) (658 to 1114 residues) expressed in baculovirus infected Sf9 insect cells incubated for 1 hr by TR-FRET assay
[18] = molecular target: Tyrosine-protein kinase ITK/TSK (Homo sapiens, UniProt Q08881); assay: Binding affinity to recombinant human full-length N-terminal GST-tagged ITK expressed in baculovirus expression system using srctide as substrate incubated for 1 hr by TR-FRET assay
[19] = molecular target: Cyclin-C/Cyclin-dependent kinase 19 (Homo sapiens, UniProt Q9BWU1); assay: Binding affinity to recombinant human full length N-terminal GST-tagged CDK19 co-expressed with N-terminal GST-tagged CyclinC expressed in baculovirus expression system using RNA polymerase peptide as substrate incubated for 1 hr by TR-FRET assay
[20] = molecular target: Serine/threonine-protein kinase 24 (Homo sapiens, UniProt Q9Y6E0); assay: Binding affinity to recombinant full-length N-terminal His-FLAG-tagged STK24 (unknown origin) expressed in baculovirus infected Sf9 insect cells incubated for 1 hr by TR-FRET assay
[21] = molecular target: Tyrosine-protein kinase Lck (Homo sapiens, UniProt P06239); assay: Binding affinity to recombinant human full length N-terminal GST-tagged LCK expressed in baculovirus expression system using srctide as substrate incubated for 1 hr by TR-FRET assay
Chain of Tyrosine-protein kinase Lck (P06239 whole entry): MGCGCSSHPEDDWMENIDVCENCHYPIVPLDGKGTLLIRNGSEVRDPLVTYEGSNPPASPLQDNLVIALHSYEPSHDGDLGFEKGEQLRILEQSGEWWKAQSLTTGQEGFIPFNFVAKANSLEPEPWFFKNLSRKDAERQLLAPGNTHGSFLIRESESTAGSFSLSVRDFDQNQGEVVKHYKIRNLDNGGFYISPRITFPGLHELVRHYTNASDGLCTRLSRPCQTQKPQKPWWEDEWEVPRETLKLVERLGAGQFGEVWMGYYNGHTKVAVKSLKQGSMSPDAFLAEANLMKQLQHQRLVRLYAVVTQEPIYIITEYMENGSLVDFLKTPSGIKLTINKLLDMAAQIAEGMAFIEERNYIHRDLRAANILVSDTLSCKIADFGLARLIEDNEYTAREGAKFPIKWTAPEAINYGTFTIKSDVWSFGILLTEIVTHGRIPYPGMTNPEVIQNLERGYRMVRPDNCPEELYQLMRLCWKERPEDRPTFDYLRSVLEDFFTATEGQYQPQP

[22] = molecular target: Serine/threonine-protein kinase 32B (Homo sapiens, UniProt Q9NY57); assay: Binding affinity to recombinant full-length N-terminal His-FLAG-GST-tagged STK32B (unknown origin) expressed in baculovirus infected Sf9 insect cells incubated for 1 hr by TR-FRET assay

CO[C@@H]1[C@H](N(C)CCOCCOCCOCCNC(=O)CCC2=[N+]3C(=Cc4c(C)cc(C)n4[B-]3(F)F)C=C2)C[C@H]2O[C@]1(C)n1c3ccccc3c3c4c(c5c6ccccc6n2c5c31)C(=O)NC4
Kd [1]: 643 nM
Kd [2]: 537 nM
Kd [3]: 306 nM
Kd [4]: 249 nM
Kd [5]: 110 nM
Kd [6]: 293 nM
Kd [7]: 14 nM
Kd [8]: 46 nM
Kd [9]: 13 nM
Kd (Myosin-IIIb): 294 nM
Kd [10]: 9 nM
Kd [11]: 66 nM
Kd [12]: 49 nM
Kd [13]: 2 nM
Kd [14]: 812 nM
Kd [15]: 609 nM
Kd (Insulin receptor): 1690 nM
Kd [16]: 85 nM
Kd [17]: 54 nM
Kd [18]: 765 nM
Kd [19]: 125 nM
Kd [20]: 767 nM
Kd [21]: 92 nM
Kd [22]: 984 nM

CO[C@@H]1[C@H](NCCOCCOCCOCCNC(=O)CCC2=[N+]3C(=Cc4c(C)cc(C)n4[B-]3(F)F)C=C2)C[C@H]2O[C@]1(C)n1c3ccccc3c3c4c(c5c6ccccc6n2c5c31)C(=O)NC4
Kd [1]: 268 nM
Kd [2]: 749 nM
Kd [3]: 113 nM
Kd [4]: 345 nM
Kd [5]: 365 nM
Kd [6]: 360 nM
Kd [7]: 11 nM
Kd [8]: 45 nM
Kd [9]: 4 nM
Kd (Myosin-IIIb): 328 nM
Kd [10]: 15 nM
Kd [11]: 64 nM
Kd [12]: 8 nM
Kd [13]: 4 nM
Kd [14]: 930 nM
Kd [15]: 299 nM
Kd (Insulin receptor): 1860 nM
Kd [16]: 109 nM
Kd [17]: 40 nM
Kd [18]: 379 nM
Kd [19]: 259 nM
Kd [20]: 436 nM
Kd [21]: 94 nM
Kd [22]: 446 nM
